Experiment: mn = molality of the nth substance listed, in mol/kg
Details: 101 kPa, Liquid; for speed of sound: Sing-around technique in a fixed-path interferometer; for mass density: Vibrating tube method

CCCCn1cc[n+](C)c1.F[B-](F)(F)F [1-butyl-3-methylimidazolium tetrafluoroborate] + O
Details	mass density, 288.15 K [kg/m3]	mass density, 293.15 K [kg/m3]	mass density, 298.15 K [kg/m3]	mass density, 303.15 K [kg/m3]	mass density, 308.15 K [kg/m3]	speed of sound, 288.15 K [m/s]	speed of sound, 293.15 K [m/s]	speed of sound, 298.15 K [m/s]	speed of sound, 303.15 K [m/s]	speed of sound, 308.15 K [m/s]
m1 = 0.0514	1001.13	1000.19	998.93	997.535	995.822	1471.9	1487.3	1500.9	1512.8	1523
m1 = 0.1056	1003.19	1002.21	1000.85	999.439	997.645	1476.9	1492	1505	1516.2	1526
m1 = 0.1559	1005.1	1004.06	1002.6	1001.17	999.334	1481.5	1495.9	1508.5	1519.5	1528.8
m1 = 0.201	1006.76	1005.67	1004.18	1002.7	1000.82	1485.3	1499.3	1511.3	1522.1	1531.1
m1 = 0.2573	1008.83	1007.69	1006.13	1004.58	1002.65	1490	1503.4	1515	1525.2	1533.7
m1 = 0.3001	1010.36	1009.21	1007.59	1005.98	1004.05	1493.2	1506.2	1517.5	1527.3	1535.6
m1 = 0.3504	1012.17	1010.97	1009.26	1007.63	1005.66	1496.9	1509.5	1520.4	1529.8	1537.7
m1 = 0.4093	1014.26	1012.98	1011.22	1009.47	1007.54	1501.1	1513.2	1523.6	1532.6	1540.1
m1 = 0.4506	1015.7	1014.4	1012.58	1010.78	1008.78	1504	1515.6	1525.8	1534.5	1541.7
m1 = 0.508	1017.7	1016.36	1014.5	1012.56	1010.59	1507.4	1519	1528.5	1536.8	1543.7

CCCCn1cc[n+](C)c1.O=S(=O)([O-])C(F)(F)F [1-butyl-3-methylimidazolium trifluoromethanesulfonate] + O
Details	mass density, 288.15 K [kg/m3]	mass density, 293.15 K [kg/m3]	mass density, 298.15 K [kg/m3]	mass density, 303.15 K [kg/m3]	mass density, 308.15 K [kg/m3]	speed of sound, 288.15 K [m/s]	speed of sound, 293.15 K [m/s]	speed of sound, 298.15 K [m/s]	speed of sound, 303.15 K [m/s]	speed of sound, 308.15 K [m/s]
m1 = 0.051	1002.68	1001.73	1000.53	999.089	997.44	1472.8	1488	1501.7	1513.5	1523.6
m1 = 0.1023	1006.18	1005.17	1003.9	1002.43	1000.76	1478.5	1493.2	1506.2	1517.4	1527
m1 = 0.1499	1009.37	1008.3	1007	1005.49	1003.78	1483.8	1497.9	1510.2	1520.8	1529.8
m1 = 0.1996	1012.64	1011.5	1010.17	1008.6	1006.87	1489.1	1502.4	1514.2	1524.5	1533
m1 = 0.2496	1015.85	1014.68	1013.28	1011.7	1009.91	1494.2	1507	1518.1	1527.6	1535.6
m1 = 0.3019	1019.2	1017.92	1016.52	1014.86	1013.02	1499.2	1511.3	1521.8	1530.8	1538.2
m1 = 0.3489	1022.13	1020.78	1019.36	1017.64	1015.77	1503.5	1515	1525	1533.5	1540.5
m1 = 0.4034	1025.46	1024.1	1022.57	1020.8	1018.88	1508.2	1519	1528.4	1536.3	1542.8
m1 = 0.4532	1028.45	1027.06	1025.5	1023.65	1021.69	1512.3	1522.7	1531.5	1538.9	1544.9
m1 = 0.5045	1031.5	1030.04	1028.46	1026.57	1024.5	1517	1526.9	1534.1	1541	1546.6

Source: the NIST ThermoML archive (doi:10.1016/j.jct.2012.03.025)
